Test results from patent US20070141581A1, “Membrane androgen receptor as a therapeutic target for the prevention/promotion of cell death” (University of North Texas Health Science Center at Fort …, priority 2005, published 2007).

Columns and labels:
ERK = ERK phosphorylation in C6 glial cells (Western blot); assay type: cell-based, Rat
Description: (§1) Materials and Methods. Cell culture. Rat glioma cells (C6; American Type Culture Collection, Manassas, Va.) were propagated in Dulbecco's Modified Eagle Medium (DMEM; Invitrogen, Carlsbad, Calif.) supplemented with 10% charcoal-stripped fetal bovine serum (FBS; Hyclone, Logan, Utah), and maintained at 37° C. in a humidified environment containing 5% CO2.
(§2) Treatment of cultures. C6 glial cells were treated with either vehicle control (DMSO, 0.1%), dihydrotestosterone (DHT) (Steraloids Inc., Newport, R.I.), or 5α-androstan-17β-ol-3-one-3-o-carboxymethyloxime:BSA (DHT-BSA) (Steraloids Inc.) at the concentrations indicated for 30 minutes, to assess the effects of these hormones on ERK and Akt phosphorylation. […] Inhibition of the classical androgen receptor was achieved using the androgen receptor antagonist, Flutamide (3 μM; Sigma-Aldrich, St. Louis, Mo.), which was applied 30 minutes prior to treatment with the hormone. Inhibition of MEK, the signaling protein upstream of ERK was achieved using U0126 (10 μM; Cell Signaling, Beverly, Mass.), also pre-incubated for a period of 30 minutes prior to hormone administration.
(§3) Western blot analysis. Following treatment with hormone and/or inhibitor, C6 glial cells were harvested into lysis buffer containing protease and phosphatase inhibitors as described previously (25). Following homogenization, samples were centrifuged at 99,000×g for 15 min at 4° C., and the resulting supernatants were evaluated for total protein concentrations using the BioRad DC (Biorad Labs, Hercules, Calif.) protein assay kit [based on the method of Lowry; (26)]. Sample lysates were loaded onto a sodium dodecyl sulfate (SDS), 10% polyacrylamide gel (PAGE), subjected to electrophoresis, and subsequently transferred onto a polyvinylidene difluoride membrane (PVDF; 0.22 μm pore size, BioRad). The membrane was blocked for 6 hrs with a 3% BSA in 0.2% Tween-containing TBS (TBS-T) solution prior to application of the primary antibody. The following primary antibodies were used: for the detection of the androgen receptor, anti-AR (C-19) (1:200; Santa Cruz Biotechnology); for the detection of the phosphorylated form of Akt: rabbit anti-phospho-Akt (Ser473; 1:1000; Cell Signaling, Beverly, Mass.), for the detection of total Akt, anti Akt (1:1000; Cell Signaling); for the detection of the phosphorylated form of ERK1/2, rabbit anti phospho-p44/42 Map Kinase (Thr202/Tyr204, 1:1000; Cell Signaling); for the detection of total ERK1 and ERK2, goat anti-ERK1 (C-16, 1:500)/goat anti-ERK2 (C-14, 1:500; Santa Cruz Biotechnology). Antibody binding to the membrane was detected using a secondary antibody (either goat anti-rabbit or rabbit anti-goat) conjugated to horseradish peroxidase (1:20,000; Pierce, Rockford, Ill.) and visualized using enzyme-linked chemiluminescence (ECL, Amersham, Arlington Heights, Ill.) with the aid of the UVP imaging system. Phospho-Akt and phosphoERK blots were re-probed with anti-Akt or anti ERK1/2 antibodies to ensure equal loading across lanes.
(§4) Statistical Analysis. Densitometric analysis of the Western blots was conducted using the LabWorks Image Acquisition and Analysis Software (UVP Inc., Upland, Calif.). Densitometric data from at least three independent studies was subjected to an analysis of variance (ANOVA), followed by a Tukey's post hoc analysis for the assessment of group differences, and presented as a bar graph depicting the average±S.E.M., using the GraphPad Software (San Diego, Calif.).

Akt = Akt phosphorylation in C6 glial cells (Western blot); assay type: cell-based, Rat
Description: as §1, §2, §3, §4

[1] = test system: hippocampal neuron damage; settings: kainic acid model, reference 33; cited from earlier work
[2] = test system: membrane-associated androgen receptor; assay: Flow cytometry binding of DHT-BSA-FITC to the cell surface of live C6 glial cells; set-up: species or system Rat; settings: 20-fold molar excess of DHT (1 mM) vs DHT-BSA-FITC 50 μM
Description: Flow cytometry. Briefly, C6 glial cells (10^6 cells) were pipetted into a 1.5 ml micro-centrifuge tube, centrifuged at 250×g for 5 minutes and washed twice with 1 ml of PBS. […] In parallel, cells were re-suspended in PBS treated with BSA-FITC (50 μM; Sigma Aldrich), serving as the control for the detection of “non-specific binding”. Following this incubation period, the cells were washed twice in PBS and resuspended in 500 μl of PBS. The labeled C6 glial cells were injected into an EPICS XL-MCL flow cytometer (Beckman Coulter) and analyzed with System 2 software (Beckman Coulter).
In order to determine if DHT-BSA binds to a specific site on the cell surface (indicative of a membrane-associated androgen receptor), the binding of the fluorescently-labeled DHT-BSA (DHT-BSA-FITC) in C6 glial cells was evaluated. Non-“fixed” and non-permeabilized C6 glial cells were treated with DHT-BSA-FITC (50 μM) in the presence or absence of 20-fold molar excess of DHT (1 mM). Incubation of the cells with BSA-FITC alone for 30 min at 4° C. provided a measure of non-specific binding.
To determine if DHT-BSA binds to surface (plasma membrane) receptors, C6 glial cells were treated with DHT-BSA-FITC (50 μM) for 30 min. in the presence/absence of a 20-fold molar excess of DHT (1 mM). Samples were washed and analyzed using flow cytometric analysis.

C6 glial cells = assay: LDH release / iodoacetic acid (IAA) induced cell death of C6 glial cells; assay type: cell-based, Rat
Description: Triton-X (Tr-X, 0.9%)-induced lysis of cells served as the positive control for LDH release. Estradiol (E2, 10 μM) treatment of cells served as the positive control for protection against IAA-induced LDH release. Data are representative of two independent studies. The effect shown in FIG. 10, is in sharp contrast to the protective effect of DHT reported previously, and supports further the observation that two, potentially competing, mechanisms regulate the effects of androgens on cell viability. In all studies that used the membrane impermeable androgen, the DHT-BSA preparation was filtered using a 10 kDa nominal cut-off column prior to application of this steroid hormone conjugate, to ensure that the effects of DHT-BSA were not attributed to, or confounded by the presence of free (unconjugated) DHT. Stevis, et al., (Stevis P E, Deecher D C, Suhadolnik L, Mallis L M, Frail D E 1999 Differential effects of estradiol and estradiol-BSA conjugates. Endocrinology 140:5455-8) have described that the commercially available preparation of estradiol-conjugated to BSA (E2-BSA), for example, was contaminated with some free estradiol.

Compound: C[C@]12CCC(=NOCC(=O)O)C[C@@H]1CC[C@@H]1[C@@H]2CC[C@]2(C)[C@@H](O)CC[C@@H]12 [DHT:CMO, 5α-androstan-17β-ol-3-one-3-o-carboxymethyloxime]
- ERK phosphorylation by CMO-modified DHT (ERK; 0.01, 0.1, 1 μM, 30 min): did not alter the ability of the androgen to elicit ERK phosphorylation

Compound: N#CC(=C(/N)Sc1ccccc1N)/C(C#N)=C(\N)Sc1ccccc1N [U0126]
- effect of MEK1/2 inhibitor on DHT-induced ERK phosphorylation (ERK): blocked

Compound: Pertussis toxin
- effect of Gi/o inhibitor on DHT-BSA-mediated suppression of ERK phosphorylation (ERK; 50 μM, data not shown): failed to prevent
- effect of Gi/o inhibitor on DHT-BSA-mediated suppression of Akt phosphorylation (Akt; 50 μM, data not shown): failed to prevent

Compound: C[C@]12CCC(=O)C[C@@H]1CC[C@@H]1[C@@H]2CC[C@]2(C)[C@@H](O)CC[C@@H]12 [DHT, dihydrotestosterone]
- amount of hippocampal neuron damage [1]: reduce the amount of hippocampal neuron damage
- ERK phosphorylation at higher concentrations (ERK): did not result in an increase in ERK phosphorylation
- increase in the phosphorylation of ERK (ERK): 2.5 fold
- Akt phosphorylation (phospho-Akt levels) (Akt): induced an increase in Akt phosphorylation
- displacement of DHT-BSA-FITC labeling [2]: displaced

Compound: 5α-androstan-17β-ol-3-one-3-o-carboxymethyloxime:BSA [DHT-BSA]
- ERK phosphorylation (phospho-ERK levels relative to sham control) (ERK; 0.01, 0.1, 1.0 μM, 30 min, particularly at 100 nM and 1 μM): substantial suppression of ERK phosphorylation
- concentration at which the inhibitory effect on ERK phosphorylation becomes evident (ERK; 30 min, C6 glial cells): 0.1 µM
- effect on DHT-induced ERK phosphorylation (ERK; co-applied with DHT 10 nM, 30 min, 0.01, 0.1, 1 μM, dose dependent): blocked the effect of DHT
- Akt phosphorylation (phospho-Akt levels relative to sham control) (Akt; 0.01, 0.1 and 1 μM, 30 min): dose-dependent suppression of Akt phosphorylation
- concentration at which the inhibitory effect on Akt phosphorylation becomes evident (Akt; 30 min, C6 glial cells): 0.1 µM
- cellular damage as assessed by LDH release into the media (C6 glial cells; increasing concentrations, alone): did not result in cellular damage
- toxicity associated with IAA (LDH release) (C6 glial cells; with low level insult IAA 10 μM): significantly increased the toxicity associated with IAA

Compound: CC(C)C(=O)Nc1ccc([N+](=O)[O-])c(C(F)(F)F)c1 [Flutamide]
- effect of AR antagonist on DHT-induced Akt phosphorylation (Akt; Flutamide 3 μM): failed to inhibit
